Key:
Assay type in all cases: cell-based
[1] = test system: shPTEN LN229 glioblastoma cells; assay: Cell viability (CytoTox Glo) in PTEN-deficient shPTEN LN229 glioblastoma cells; settings: serum-free, 72 hours
Experimental: (§1) FIG. 1 depicts a dose curve analysis showing the efficacy of the combination of LY2584702 with merestinib in shPTEN LN229 glioblastoma cells. Viability was measured using CytoTox Glo after culturing with inhibitors in serum-free conditions for 72 hours.
(§2) LN229 glioblastoma cells were transduced with either short hairpin RNA (shRNA) lentiviral particles coding for non-targeting shRNA (shNT) or shRNA that targets PTEN mRNA (shPTEN) for inhibition and degradation. These cells were then treated with either vehicle control, 10 μM LY2584702, 0.1-20 μM merestinib, or a combination of 10 μM LY2584702 and 0.1-20 μM merestinib. Cell viability was measured using CytoTox Glo after culturing with inhibitors in serum-free conditions for 72 hours.

[2] = test system: PTEN-expressing U-PTEN U87MG cells; assay: Cell viability (CytoTox Glo) in PTEN-expressing U-PTEN U87MG glioblastoma cells; settings: U-PTEN U87MG (doxycycline-induced PTEN), serum-free, 72 hours
Experimental: as §1, with “2” for “1”, “PTEN-deficient U87MG” for “shPTEN LN229”, “hours. Doxycycline addition induced PTEN and protected cells from the cytotoxic effect of combination drug treatment.” for “hours.”
(§3) U87MG glioblastoma cells were treated with doxycycline to induce PTEN expression (U-PTEN), while a separate set of U87 glioblastoma cells were treated with a similar amount of vector (U-vector). Thus, the U-vector cells were PTEN-deficient. These cells were then treated with either vehicle control, 10 μM LY2584702, 0.1-20 μM merestinib, or a combination of 10 μM LY2584702 and 0.1-20 μM merestinib. Cell viability was measured using CytoTox Glo after culturing with inhibitors in serum-free conditions for 72 hours.

shNT LN229 cells = assay: Cell viability (CytoTox Glo) in non-targeting shNT LN229 glioblastoma cells; settings: serum-free, 72 hours
Experimental: as §2

[3] = test system: PTEN-deficient U-vector U87MG glioblastoma cells; assay: Cell viability (CytoTox Glo) in PTEN-deficient U-vector U87MG glioblastoma cells; settings: serum-free, 72 hours
Experimental: as §1, with “2” for “1”, “PTEN-deficient U87MG” for “shPTEN LN229”, “hours. Doxycycline addition induced PTEN and protected cells from the cytotoxic effect of combination drug treatment.” for “hours.”
as §3

[4] = test system: PTEN-deficient glioblastoma cells; assay: Cell viability in PTEN-deficient glioblastoma cells (cabozantinib comparison)
Experimental: (§4) Glioblastoma cells were treated to produce two populations: PTEN-expressing and PTEN-deficient. These cells were then treated with either vehicle control, LY2584702, variable concentrations of cabozantinib, or a combination of LY2584702 and variable concentrations of cabozantinib. Cabozantinib is a small molecule inhibitor of RTKs, including TAM receptors. Cell viability was measured after culturing with the inhibitors.

[5] = test system: PTEN-expressing glioblastoma cells; assay: Cell viability in PTEN-expressing glioblastoma cells (cabozantinib comparison)
Experimental: as §4

[6] = variable concentrations of cabozantinib alone

Measured: cytotoxicity (cell viability)

Cc1ccc(C(=O)Nc2ccc(Oc3cc4cnn(C)c4cc3-c3cn[nH]c3)c(F)c2)c(=O)n1-c1ccc(F)cc1 [merestinib]
not cytotoxic: [1]; 0.1-20 μM merestinib alone | [2]; 0.1-20 μM merestinib alone | shNT LN229 cells; 0.1-20 μM merestinib alone | [3]; 0.1-20 μM merestinib alone

COc1cc2nccc(Oc3ccc(NC(=O)C4(C(=O)Nc5ccc(F)cc5)CC4)cc3)c2cc1OC [cabozantinib]
not cytotoxic: [4]; [6] | [5]; [6]

Cn1cc(-c2ccc(F)c(C(F)(F)F)c2)nc1C1CCN(c2ncnc3[nH]ncc23)CC1 [LY2584702]
not cytotoxic: [1]; 10 μM LY2584702 alone | [2]; 10 μM LY2584702 alone | shNT LN229 cells; 10 μM LY2584702 alone | [3]; 10 μM LY2584702 alone | [4]; LY2584702 alone | [5]; LY2584702 alone
